target: T1, recombinant human Flag-tagged PARP7 (amino acids 456-657) (Homo sapiens, UniProt Q7Z3E1); test: PARP7 biochemical DELFIA assay (auto-MARylation); settings: DELFIA readout, IC50 class
T1 construct: recombinant human Flag-tagged PARP7 (amino acids 456-657)
T1 sequence (Q7Z3E1 456-657): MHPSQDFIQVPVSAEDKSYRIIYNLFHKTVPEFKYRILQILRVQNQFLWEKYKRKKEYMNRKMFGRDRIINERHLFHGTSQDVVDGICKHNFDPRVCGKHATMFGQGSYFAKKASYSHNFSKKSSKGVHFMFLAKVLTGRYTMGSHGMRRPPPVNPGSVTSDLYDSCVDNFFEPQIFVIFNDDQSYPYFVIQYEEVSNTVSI
Summary of the method: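 Flag-PARP7 (456-657), 12.5-37.5 nM stock, captured on anti-FLAG wells, preincubated 30 min with compound, then auto-MARylated with biotin-NAD+ (15 μM stock) in HEPES pH 7.5/NaCl/DTT/BSA/Tween for 2-3 h at room temperature. NAD+ quench; Eu-streptavidin DELFIA read, Ex337/Em620 nm.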

| IC50 [µM] | SMILES |
| --- | --- |
| ≤ 0.1 | O=C(CCOCCn1ncc2c(=O)[nH]ncc21)N1CCN(c2ncc(C(F)(F)F)cn2)CC1 [Compound 50, 1-(2-(3-oxo-3-(4-(5-(trifluoromethyl)pyrimidin-2-yl)piperazin-1-yl)propoxy)ethyl)-1,5-dihydro-4H-pyrazolo[3,4-d]pyridazin-4-one] |
| ≤ 0.1 | CC(COCCC(=O)N1CCN(c2ncc(C(F)(F)F)cn2)CC1)c1cc(F)cc2c(=O)[nH]ncc12 (stereo not drawn) [Compound 120] |
| ≤ 0.1 | CC1(C)CN(C(=O)CCOCCn2nc(C(F)(F)F)c3c(=O)[nH]ncc32)CCN1c1ccc(C(F)(F)F)cn1 [Compound 173] |
| ≤ 0.1 | O=C(CCOCCc1cccc2c(=O)[nH]ncc12)N1CCN(c2nc3ccccc3o2)CC1 [Compound 146] |
| ≤ 0.1 | O=C(CCOCCc1cccc2c(=O)[nH]ncc12)N1CCC(c2nc3ccccc3o2)CC1 [Compound 139] |
| ≤ 0.1 | CC1CN(c2ncc(C(F)(F)F)cn2)CCN1C(=O)CCOCCn1nc(C(F)(F)F)c2c(=O)[nH]ncc21 (stereo not drawn) [Compound 160] |
| ≤ 0.1 | CC1(C)CN(C(=O)CCOCCn2nc(C(F)(F)F)c3c(=O)[nH]ncc32)CCN1c1ncc(C(F)(F)F)cn1 [Compound 182] |
| ≤ 0.1 | CCC(COCCC(=O)N1CCN(c2ncc(C(F)(F)F)cn2)CC1)n1nc(C(F)(F)F)c2c(=O)[nH]ncc21 (stereo not drawn) [Compound 298] |
| ≤ 0.1 | CC1CN(C(=O)CCOCCn2ncc3c(=O)[nH]ncc32)CCN1c1ncc(C(F)(F)F)cn1 (stereo not drawn) [Compound 137] |
| ≤ 0.1 | O=C(CCOCCn1ncc2c(=O)[nH]ncc21)N1CCN(c2ccc(C(F)(F)F)cn2)CC1 [Compound 132] |
| ≤ 0.1 | N#Cc1nn(CCOCCC(=O)N2CCN(c3ncc(C(F)(F)F)cn3)CC2)c2cn[nH]c(=O)c12 [Compound 428] |
| ≤ 0.1 | CC(COCCC(=O)N1CCN(c2ccc(C#N)cn2)CC1)n1nc(C(F)(F)F)c2c(=O)[nH]ncc21 (stereo not drawn) [Compound 269] |
| ≤ 0.1 | O=C(CCOCCn1nc(C(F)(F)F)c2c(=O)[nH]ncc21)N1CCN(c2ncc(C(F)(F)F)s2)CC1 [Compound 247] |
| ≤ 0.1 | O=C(CCOCCn1cc(C(F)(F)F)c2c(=O)[nH]ncc21)N1CCN(c2nc3cc(Cl)ccc3o2)CC1 [Compound 359] |
| ≤ 0.1 | CC(COCCC(=O)N1CCN(c2ncc(OC(F)F)cn2)CC1)n1nc(C(F)(F)F)c2c(=O)[nH]ncc21 (stereo not drawn) [Compound 293] |
| ≤ 0.1 | CC(COCCC(=O)N1CCN(c2ncc(C(F)(F)F)cn2)CC1)n1cc(C(F)(F)F)c2c(=O)[nH]ncc21 (single isomer, unassigned) [Compound 223, 1-(1-(3-oxo-3-(4-(5-(trifluoromethyl)pyrimidin-2-yl)piperazin-1-yl)propoxy)propan-2-yl)-3-(trifluoromethyl)-1,5-dihydro-4H-pyrrolo[2,3-d]pyridazin-4-one] |
| ≤ 0.1 | CC(COCCC(=O)N1CCN(c2ncc(Cl)cn2)CC1)n1nc(C(F)(F)F)c2c(=O)[nH]ncc21 (single isomer, unassigned) [Compound 185] |
| ≤ 0.1 | CC(COCCC(=O)N1CCN(c2ncc(C(C)(C)C)cn2)CC1)n1nc(C(F)(F)F)c2c(=O)[nH]ncc21 (single isomer, unassigned) [Compound 501] |
| ≤ 0.1 | CC(COCCC(=O)N1CCN(c2ncc(C(F)(F)F)cn2)CC1)n1c(=O)n(C)c2c(=O)[nH]ncc21 (stereo not drawn) [Compound 397] |
| ≤ 0.1 | O=C(CCOCCc1cccc2c(=O)[nH]ncc12)N1CCN(c2ncc(C(F)F)cn2)CC1 [Compound 101] |
| ≤ 0.1 | CC(COCC(=O)NC1CCN(c2ncc(C(F)(F)F)cn2)CC1)n1cc(C(F)(F)F)c2c(=O)[nH]ncc21 (stereo not drawn) [Compound 458] |

| IC50 [µM] | SMILES |
| --- | --- |
| ≤ 0.1 | CNC(=O)c1cnc(N2CCN(C(=O)CCOCC(C)n3nc(C(F)(F)F)c4c(=O)[nH]ncc43)CC2)nc1 (single isomer, unassigned) [Compound 326] |
| ≤ 0.1 | CC(COCCC(=O)N1CCN(c2nnc(C(F)(F)F)s2)CC1)n1nc(C(F)(F)F)c2c(=O)[nH]ncc21 (stereo not drawn) [Compound 292] |
| ≤ 0.1 | N#Cc1ccc(N2CCN(C(=O)CCOCCc3cc(F)cc4c(=O)[nH]ncc34)CC2)nc1 [Compound 81] |
| ≤ 0.1 | CC(COCCC(=O)N1CCN(c2ncc(C(C)(F)F)cn2)CC1)n1nc(C(F)(F)F)c2c(=O)[nH]ncc21 (single isomer, unassigned) [Compound 485] |
| ≤ 0.1 | CC(COCCC(=O)N1CCN(c2ncc(C(F)(F)F)cn2)CC1)c1cccc2c(=O)[nH]ncc12 (single isomer, unassigned) [Compound 73, 5-(1-(3-oxo-3-(4-(5-(trifluoromethyl)pyrimidin-2-yl)piperazin-1-yl)propoxy)propan-2-yl)phthalazin-1(2H)-one] |
| ≤ 0.1 | COc1ccc(N2CCN(C(=O)CCOCC(C)n3nc(C(F)(F)F)c4c(=O)[nH]ncc43)CC2)nc1 (single isomer, unassigned) [Compound 306] |
| 1 to 10 | N#Cc1ccc(N2CCN(C(=O)c3cccc(OCc4cccc5c(=O)[nH]ncc45)c3)CC2)nc1 [Compound 93] |
| 0.1 to 1 | O=C(NCCOc1cccc2c(=O)[nH]ncc12)N1CCN(c2ncc(C(F)(F)F)cn2)CC1 [Compound 58] |
| ≤ 0.1 | [2H]C(C)(COCCC(=O)N1CCN(c2ncc(C(F)(F)F)cn2)CC1)n1cc(C(F)(F)F)c2c(=O)[nH]ncc21 (single isomer, unassigned) [Compound 477, 1-(1-(3-oxo-3-(4-(5-(trifluoromethyl)pyrimidin-2-yl)piperazin-1-yl)propoxy)propan-2-yl-2-d)-3-(trifluoromethyl)-1,5-dihydro-4H-pyrrolo[2,3-d]pyridazin-4-one] |
| 0.1 to 1 | O=C(CCOCCn1cnc2c(=O)[nH]ncc21)N1CCN(c2ncc(C(F)(F)F)cn2)CC1 [Compound 51] |
| ≤ 0.1 | O=C(CCOCCn1cc(C(F)(F)F)c2c(=O)[nH]ncc21)N1CCN(c2ccc(Cl)cn2)CC1 [Compound 238] |
| ≤ 0.1 | CC(COCCC(=O)N1CCN(c2ccc(Cl)cn2)CC1)n1nc(C(F)(F)F)c2c(=O)[nH]ncc21 (stereo not drawn) [Compound 212] |
| 0.1 to 1 | Cc1nc2c(=O)[nH]ncc2n1CCOCCC(=O)N1CCN(c2ncc(C(F)(F)F)cn2)CC1 [Compound 170] |
| ≤ 0.1 | CC(COCCC(=O)N1CCN(c2cnc(C(F)(F)F)cn2)CC1)n1nc(C(F)(F)F)c2c(=O)[nH]ncc21 (stereo not drawn) [Compound 267] |
| ≤ 0.1 | Cc1cnc(N2CCN(C(=O)CCOCC(C)n3nc(C(F)(F)F)c4c(=O)[nH]ncc43)CC2)nc1 (stereo not drawn) [Compound 286] |
| 0.1 to 1 | NCc1cc2c(=O)[nH]ncc2n1CCOCCC(=O)N1CCN(c2ncc(C(F)(F)F)cn2)CC1 [Compound 136] |
| ≤ 0.1 | CC1CN(C(=O)CCOCCn2cc(C(F)(F)F)c3c(=O)[nH]ncc32)CCN1c1ncc(C(F)(F)F)cn1 (stereo not drawn) [Compound 373] |
| 0.1 to 1 | CNCc1cc2c(=O)[nH]ncc2n1CCOCCC(=O)N1CCN(c2ncc(C(F)(F)F)cn2)CC1 [Compound 49] |
| ≤ 0.1 | CC(COCCC(=O)N1CCN(c2cc(C(F)(F)F)[nH]n2)CC1)n1nc(C(F)(F)F)c2c(=O)[nH]ncc21 (stereo not drawn) [Compound 489] |
| ≤ 0.1 | CC(COCCC(=O)N1CCN(c2ncc(C(F)(F)F)cn2)CC1)n1nc(C(F)F)c2c(=O)[nH]ncc21 (single isomer, unassigned) [Compound 436] |
| ≤ 0.1 | CC(CCOCC(=O)N1CCN(c2ccc(C#N)cn2)CC1)n1cc(C(F)(F)F)c2c(=O)[nH]ncc21 (single isomer, unassigned) [Compound 494] |

— US20240217968A1, “PHARMACEUTICAL COMPOUND” (DUKE STREET BIO LIMITED, priority 2021, published 2024)
